Test system: GUMC-403
Assay: viability at highest tested concentration (max response) relative to DMSO (% of DMSO control); higher = less cytotoxic
Conditions: library / dose series: MIPE library, 11-point 1:3 dilution, 48 h
Method in brief: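 Conditionally reprogrammed GUMC-403 papilloma cells from a patient were plated at 700/well in 5 μL F + Y medium in 1536-well plates and left overnight at 37 °C. A pin tool then added 23 nL of library compounds as an 11-point 1:3 series, for 48 h. CellTiter-Glo luminescence was read on a ViewLux and scaled with vehicle wells set to 100% and empty wells to 0%. Each value gives viability at the highest tested concentration relative to vehicle control.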

| Compound | viability (top concentration 46.1 µM) | further results |
| --- | --- | --- |
| OC1=CC2=C(C(=O)\C=C(/O2)C3=CC=CC=C3)C(=C1O)O | 114 | – |
| Nc1ncnc2c1ncn2[C@@H]1O[C@@H](CO)[C@H](O)[C@@H]1O | – | viability (top concentration 34.6 µM): 118 |
| CC(C)CNc1ccnc(NCc2csc(-c3ccccc3)n2)n1 | 100 | – |
| CCNC(=O)[C@H]1O[C@@H](n2cnc3c(N)nc(NCCc4ccc(CCC(=O)O)cc4)nc32)[C@H](O)[C@@H]1O | 112 | – |
| CCC(C)SSc1ncc[nH]1 (centres undefined) | 101 | – |
| CCCCCCCCOc1ccccc1C(=O)Nc1ccc(C(=O)OCC[N+](C)(CC)CC)cc1 | 104 | – |
| CCC\C1=C\C(=O)NC(=S)N1 | 110 | – |
| Cl.Nc1ccn([C@@H]2O[C@H](CO)[C@@H](O)C2(F)F)c(=O)n1 | 107 | – |
| Cn1c(Nc2ccc(C(F)(F)F)cc2)nc2cc(Oc3ccnc(-c4nc(C(F)(F)F)c[nH]4)c3)ccc21 | 92.4 | – |
| ClC1=CC=C2N/C3=N/C(=O)CN3CC2=C1Cl | 94.9 | – |
| C[C@H]1CN(C[C@@H](C)O1)CC(=O)NC2=CC=C3SC4=C(CC3=C2)C=CC=C4\C5=C\C(=O)\C=C(/O5)N6CCOCC6 | 115 | – |
| COc1ccc([S+](=O)([O-])N(C(C)=O)c2ccccc2/C=C/c2cc[n+]([O-])cc2)cc1 | 60.2 | – |
| C[S+](=O)([O-])c1cccc(CNc2nc(Nc3ccc4c(c3)CCC(=O)N4)ncc2C(F)(F)F)c1 | 66.8 | – |
| CCc1cc(/C(C)=N/OCc2ccc(C3CCCCC3)c(C(F)(F)F)c2)ccc1CN1CC(C(=O)O)C1 | 116 | – |
| CCCCC[C@H](O)/C=C/[C@H]1[C@H](O)CC(=O)[C@@H]1CCCCCCC(=O)O | 107 | – |
| CN1\N=N/C2=C(N=C[N]2C1=O)C(N)=O | 121 | – |
| Cc1cc(Nc2nc(N[C@@H](C)c3ccc(F)cc3)c(C#N)cc2F)n[nH]1 | 65.1 | – |
| OC1=CC=C(C=C1)C/2=C/C3=C(OC2)C=C(O)C=C3 | 89.4 | – |
| C[N]1C=C(C=N1)C2=C3\C=N/NC(=O)C4=C3C(=CC(=C4)NC(=O)[C@H](N)C5CCCCC5)[NH]2 | 100 | – |
| CN(C)CCc1c[nH]c2ccc(C[S+](=O)([O-])N3CCCC3)cc12 | 78.5 | – |
| CC(C)(C)OC(=O)Nc1ccc(-c2cc(C(=O)NCCCCCCC(=O)NO)no2)cc1 | 81.6 | – |
| CNC(=O)CN1CCC(Oc2cc3c(Nc4cccc(Cl)c4F)ncnc3cc2OC)CC1 | 61.1 | – |

| Compound | viability (top concentration 46.1 µM) | further results |
| --- | --- | --- |
| OC1=CC2=C(C(=C1)O)C(=O)\C=C(/O2)C3=CC=CC=C3 | 126 | – |
| COC1=CC=CC(=C1N)\C2=C\C(=O)C3=C(O2)C=CC=C3 | 57.1 | – |
| O=C1CCc2cc(OCCCCc3nnnn3C3CCCCC3)ccc2N1 | 107 | – |
| C[C@@H]\1CC(=O)N\N=C1C2=CC=C(NN=C(C#N)C#N)C=C2 | 92.1 | – |
| Oc1ccc(OCc2ccccc2)cc1 | 110 | – |
| CN(C)CC(=O)N1CCC(CC1)C2=CC=C(NC(=O)C3=NC(=C[NH]3)C#N)C(=C2)\C4=C\CCCC4 | 129 | – |
| CC(C)NCC(O)COc1ccc(COCCOC(C)C)cc1 (centres undefined) | 117 | – |
| OC(CN1CCN(c2cccc(Cl)c2)CC1)C(c1ccccc1)c1ccccc1 (centres undefined) | 92 | – |
| Nc1ncnc2c1ncn2[C@@H]1O[C@H](CO)[C@@H](O)[C@H]1O | 132 | – |
| CN(C)/[N+]([O-])=N/Oc1cc(ON[N+](=O)N2CCN(C(=O)c3cc(Cc4n[nH]c(=O)c5ccccc45)ccc3F)CC2)c([N+](=O)[O-])cc1[N+](=O)[O-] | 108 | – |
| Nc1cccc2c1CN([C@H]1CCC(=O)NC1=O)C2=O | – | viability (top concentration 92.2 µM): 106 |
| CC(C)(CO)[C@@H](O)C(=O)NCCC(=O)O | 82.6 | – |
| Nc1nc(Cl)nc2c1ncn2[C@H]1C[C@H](O)[C@@H](CO)O1 | 120 | – |
| CCCCCCCCCCCCc1ccc([S+](=O)([O-])Nc2nncs2)cc1 | 118 | – |
| CC(C)(Sc1cc(C(C)(C)C)c(O)c(C(C)(C)C)c1)Sc1cc(C(C)(C)C)c(O)c(C(C)(C)C)c1 | 111 | – |
| O=c1cc(-c2ccc(O)c(O)c2)oc2cc(O)cc(O)c12 | 115 | – |
| CO[C@@H]1[C@H](N(C)C(=O)c2ccccc2)C[C@H]2O[C@]1(C)n1c3ccccc3c3c4c(c5c6ccccc6n2c5c31)C(=O)NC4 | 66.2 | – |
| Cc1cc(C(=O)N2CCN(c3cccc(Cl)c3)CC2)n(-c2ccccc2)n1 | 101 | – |
| COc1cc(OC)c(NC(=O)Nc2cc(C)on2)cc1Cl | 131 | – |
| C[C@]12CCC\3=C\4CCC(=O)\C=C4CC[C@H]3[C@@H]1CC[C@@]2(O)CC#N | 122 | – |
| CC(C)(C)OC(=O)CN(Cc1ccc(Cl)cc1)Cc1ccc([N+](=O)[O-])s1 | 97.7 | – |
| COC(=O)Nc1nc2ccc([S+]([O-])c3ccccc3)cc2[nH]1 (centres undefined) | 95.4 | – |

| Compound | viability (top concentration 46.1 µM) | further results |
| --- | --- | --- |
| COc1ccc2nc3cc(Cl)ccc3c(Nc3cc(CN4CCCC4)c(O)c(CN4CCCC4)c3)c2n1 | 116 | – |
| COc1ccc2cccc(CCNC(C)=O)c2c1 | 108 | – |
| COC1=CC=C2[N](CCCN(C)C)C=C(C2=C1)C/3=C(/C(=O)NC3=O)C4=C[NH]C5=C4C=CC=C5 | 102 | – |
| O=C(O)CCCCCC(=O)NN=C1CCCC1 | 108 | – |
| CN1C2=CC(=O)/C(=N/NC(N)=O)C=C2CC1S(=O)(=O)[O-].[Na+] (centres undefined) | 102 | – |
| CC(C)n1cnc2c(NCCc3ccc(O)cc3)nc(-c3csc4ccccc34)nc21 | 112 | – |
| OCCN1C[C@H](O)[C@@H](O)[C@H](O)[C@H]1CO | 151 | – |
| NC(=O)c1ccc2[nH]ccc2c1 | 122 | – |
| CN[C@H]1[C@H](O[C@@H]2[C@H](O[C@@H]3[C@@H](O)[C@@H](O)[C@@H](NC(=N)N)[C@@H](O)[C@H]3NC(=N)N)O[C@H](C)[C@@]2(O)C=O)O[C@@H](CO)[C@@H](O)[C@H]1O | – | viability (top concentration 13.4 µM): 114 |
| CC(N[C@H]1CCCC[C@@H]1NC(=O)c1ccc(Cl)cc1)c1cccc2ccccc12 (some centres undefined) | 91.2 | – |
| CC(=O)O[C@@]12CO[C@@H]1C[C@H](O)[C@]3(C)[C@@H]2[C@H](OC(=O)C4=CC=CC=C4)[C@]5(O)C[C@H](O)/C(=C(/[C@@H](O)C3=O)C5(C)C)C | 117 | – |
| C=C(C)[C@@H]1CC[C@]2(C)CC[C@]3(C)[C@H](CC[C@@H]4[C@@]5(C)CC[C@H](O)C(C)(C)[C@@H]5CC[C@]43C)[C@@H]12 | 135 | – |
| ClC1=CC=C(CCCOC/2=N/NC(=O)C(=C2NCC3=CN=CC=C3)/Br)C=C1 | 83.2 | – |
| Cc1c(CCOc2ccc(C(=O)O)cc2)c2cc(Cl)ccc2n1C(c1ccccc1)c1ccccc1 | 113 | – |
| CC(=O)N(C)c1cccc(-c2ccnc3c(C(=O)c4cccs4)cnn23)c1 | 106 | – |
| FC(F)(F)C1=CC=C2C(SCCCCCO\C3=C\O\C(CN4CCOCC4)=C/C3=O)=CC=NC2=C1 | 110 | – |
| CC[C@H](C)C(=O)O[C@H]1C[C@@H](C)\C=C2\C=C/[C@H](C)[C@H](CC[C@@H]3C[C@@H](O)CC(=O)O3)[C@@H]12 | 61.5 | – |
| CC1=CC=C(C=C1)N(C\C2=N\CCN2)C3=CC=CC(=C3)O | 116 | – |
| O=C(O)[C@H](Cc1c[nH]c2ccccc12)N1C(=O)c2ccccc2C1=O | – | viability (top concentration 92.2 µM): 116 |
| COC1=CC=C(C=C1)C/2=C/OC3=C(C(=CC(=C3)O)O)C2=O | 120 | – |
